Assays:
Experiment in all cases: radiometric filter-binding kinase assay
PAK4 (human) = PAK4 (human) (UniProt O96013)
CHEK2 (human) = CHEK2 (human) (UniProt O96017)
PRKACA (human) = PRKACA (human) (UniProt P17612)
RPS6KA1 KD1 KD2 (human) = RPS6KA1 KD1 KD2 (human) (UniProt Q15418)
CaMK1 (human) = CaMK1 (human) (UniProt Q14012)
[1] = system: SGK1 (human), O00141 [S422D]
MAPK10 (human) = MAPK10 (human) (UniProt P53779)
DYRK1A (human) = DYRK1A (human) (UniProt Q13627)
[2] = system: AKT1 (human), P31749 [S473D]
MAP2K6 (human) = MAP2K6 (human) (UniProt P52564)
MAP2K6 (human), sequence (P52564 whole entry, looked up): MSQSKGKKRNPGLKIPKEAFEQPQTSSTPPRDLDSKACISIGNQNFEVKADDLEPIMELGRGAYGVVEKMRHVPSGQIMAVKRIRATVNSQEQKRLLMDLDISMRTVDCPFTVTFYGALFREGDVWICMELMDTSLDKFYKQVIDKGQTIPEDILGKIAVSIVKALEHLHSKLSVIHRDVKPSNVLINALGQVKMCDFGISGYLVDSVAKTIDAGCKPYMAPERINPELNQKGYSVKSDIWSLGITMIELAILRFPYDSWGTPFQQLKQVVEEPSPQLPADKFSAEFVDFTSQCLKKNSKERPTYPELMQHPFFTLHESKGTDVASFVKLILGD

EPHB2 (human) = EPHB2 (human) (UniProt P29323)
HIPK2 (human) = HIPK2 (human) (UniProt Q9H2X6)
MAPKAPK3 (human) = MAPKAPK3 (human) (UniProt Q16644)
DYRK2 (human) = DYRK2 (human) (UniProt Q92630)
DYRK2 (human), sequence (Q92630 whole entry, looked up): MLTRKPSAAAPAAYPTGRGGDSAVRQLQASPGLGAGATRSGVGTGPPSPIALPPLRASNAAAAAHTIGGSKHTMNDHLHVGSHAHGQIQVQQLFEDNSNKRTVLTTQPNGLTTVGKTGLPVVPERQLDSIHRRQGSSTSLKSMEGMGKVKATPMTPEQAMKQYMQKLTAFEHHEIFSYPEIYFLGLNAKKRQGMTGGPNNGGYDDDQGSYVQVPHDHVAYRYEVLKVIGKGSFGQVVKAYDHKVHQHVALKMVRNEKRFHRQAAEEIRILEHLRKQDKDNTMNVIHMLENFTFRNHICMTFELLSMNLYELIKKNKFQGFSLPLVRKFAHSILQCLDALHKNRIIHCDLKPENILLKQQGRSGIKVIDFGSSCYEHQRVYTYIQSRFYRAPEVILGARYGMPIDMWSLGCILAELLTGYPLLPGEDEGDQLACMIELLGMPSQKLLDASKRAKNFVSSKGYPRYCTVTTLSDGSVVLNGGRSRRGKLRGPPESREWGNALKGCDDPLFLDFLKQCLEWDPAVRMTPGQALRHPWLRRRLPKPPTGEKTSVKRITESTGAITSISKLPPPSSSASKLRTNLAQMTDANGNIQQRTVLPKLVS

MAPK1 (human) = MAPK1 (human) (UniProt P28482)
PLK1 (human) = PLK1 (human) (UniProt P53350)
PLK1 (human), sequence (P53350 whole entry, looked up): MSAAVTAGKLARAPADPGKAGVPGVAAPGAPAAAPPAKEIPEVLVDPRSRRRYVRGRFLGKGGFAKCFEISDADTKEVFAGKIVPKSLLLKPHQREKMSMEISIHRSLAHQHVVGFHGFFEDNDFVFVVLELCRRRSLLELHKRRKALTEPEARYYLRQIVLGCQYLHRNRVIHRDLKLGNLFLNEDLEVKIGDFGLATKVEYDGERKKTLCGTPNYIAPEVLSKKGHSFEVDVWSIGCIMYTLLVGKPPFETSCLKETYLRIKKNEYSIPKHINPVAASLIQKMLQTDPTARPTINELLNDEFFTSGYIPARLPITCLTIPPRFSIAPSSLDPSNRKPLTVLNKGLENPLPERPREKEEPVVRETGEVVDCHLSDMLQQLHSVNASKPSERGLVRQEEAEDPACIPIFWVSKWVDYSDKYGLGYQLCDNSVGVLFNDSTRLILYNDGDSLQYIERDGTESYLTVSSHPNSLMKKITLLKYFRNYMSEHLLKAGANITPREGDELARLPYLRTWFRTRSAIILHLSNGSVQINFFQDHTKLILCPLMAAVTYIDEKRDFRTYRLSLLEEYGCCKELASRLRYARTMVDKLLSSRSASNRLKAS

MAP3K11 (human) = MAP3K11 (human) (UniProt Q16584)
PAK7 (human) = PAK7 (human) (UniProt Q9P286)
NUAK1 (human) = NUAK1 (human) (UniProt O60285)
EPHB3 (human) = EPHB3 (human) (UniProt P54753)
MAPK3 (human) = MAPK3 (human) (UniProt P27361)
MAPK13 (human) = MAPK13 (human) (UniProt O15264)
MAPK13 (human), sequence (O15264 whole entry, looked up): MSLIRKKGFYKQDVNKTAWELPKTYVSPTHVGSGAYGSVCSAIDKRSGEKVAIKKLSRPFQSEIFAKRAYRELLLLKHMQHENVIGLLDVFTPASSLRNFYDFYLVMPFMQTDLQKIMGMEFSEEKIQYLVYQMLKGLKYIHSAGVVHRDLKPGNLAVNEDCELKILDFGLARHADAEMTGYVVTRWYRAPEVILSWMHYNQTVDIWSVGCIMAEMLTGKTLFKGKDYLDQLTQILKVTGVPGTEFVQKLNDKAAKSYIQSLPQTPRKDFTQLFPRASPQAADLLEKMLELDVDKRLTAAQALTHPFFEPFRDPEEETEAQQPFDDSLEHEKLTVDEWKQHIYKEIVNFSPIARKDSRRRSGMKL

PRKAA1 or PRKAA2 (rat) = conditions: accession and sequence are those of the human protein
ERBB4 (human) = ERBB4 (human) (UniProt Q15303)
PRKCA (human) = PRKCA (human) (UniProt P17252)
AURKA (human) = AURKA (human) (UniProt O14965)
IKBKE (human) = IKBKE (human) (UniProt Q14164)
IKBKE (human), sequence (Q14164 whole entry, looked up): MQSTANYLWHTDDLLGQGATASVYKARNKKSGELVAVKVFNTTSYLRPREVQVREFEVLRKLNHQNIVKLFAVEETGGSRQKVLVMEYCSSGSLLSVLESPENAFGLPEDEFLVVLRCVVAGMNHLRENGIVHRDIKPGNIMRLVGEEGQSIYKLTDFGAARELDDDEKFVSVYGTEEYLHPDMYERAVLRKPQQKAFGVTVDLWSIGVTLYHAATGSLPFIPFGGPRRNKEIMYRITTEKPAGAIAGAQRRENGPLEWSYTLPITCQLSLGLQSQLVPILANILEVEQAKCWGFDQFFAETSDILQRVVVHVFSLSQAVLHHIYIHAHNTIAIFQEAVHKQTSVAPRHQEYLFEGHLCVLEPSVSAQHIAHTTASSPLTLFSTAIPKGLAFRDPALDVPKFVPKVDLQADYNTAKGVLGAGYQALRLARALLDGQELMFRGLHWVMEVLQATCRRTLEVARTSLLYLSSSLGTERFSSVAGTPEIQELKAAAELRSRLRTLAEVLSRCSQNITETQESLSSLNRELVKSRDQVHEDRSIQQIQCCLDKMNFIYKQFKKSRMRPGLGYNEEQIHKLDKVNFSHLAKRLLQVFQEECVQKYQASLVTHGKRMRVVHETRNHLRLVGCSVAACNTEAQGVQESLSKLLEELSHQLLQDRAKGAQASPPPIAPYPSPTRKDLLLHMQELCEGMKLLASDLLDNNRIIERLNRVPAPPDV

SYK (human) = SYK (human) (UniProt P43405)
MST4 (human) = MST4 (human) (UniProt Q9P289)
MST4 (human), sequence (Q9P289 whole entry, looked up): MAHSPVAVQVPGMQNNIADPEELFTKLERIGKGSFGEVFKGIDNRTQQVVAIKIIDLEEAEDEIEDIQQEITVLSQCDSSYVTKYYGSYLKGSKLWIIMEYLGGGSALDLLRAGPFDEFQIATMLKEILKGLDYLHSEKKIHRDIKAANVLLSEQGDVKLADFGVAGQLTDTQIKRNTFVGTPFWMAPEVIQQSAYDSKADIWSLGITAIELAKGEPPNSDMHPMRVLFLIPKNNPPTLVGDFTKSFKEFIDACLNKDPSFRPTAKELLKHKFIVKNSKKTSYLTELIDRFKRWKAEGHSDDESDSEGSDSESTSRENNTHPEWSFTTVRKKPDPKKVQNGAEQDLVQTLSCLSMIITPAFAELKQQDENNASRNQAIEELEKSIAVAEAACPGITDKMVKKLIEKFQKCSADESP

BRSK2 (human) = BRSK2 (human) (UniProt Q8IWQ3)
MAPK8 (human) = MAPK8 (human) (UniProt P45983)
MAPK8 (human), sequence (P45983 whole entry, looked up): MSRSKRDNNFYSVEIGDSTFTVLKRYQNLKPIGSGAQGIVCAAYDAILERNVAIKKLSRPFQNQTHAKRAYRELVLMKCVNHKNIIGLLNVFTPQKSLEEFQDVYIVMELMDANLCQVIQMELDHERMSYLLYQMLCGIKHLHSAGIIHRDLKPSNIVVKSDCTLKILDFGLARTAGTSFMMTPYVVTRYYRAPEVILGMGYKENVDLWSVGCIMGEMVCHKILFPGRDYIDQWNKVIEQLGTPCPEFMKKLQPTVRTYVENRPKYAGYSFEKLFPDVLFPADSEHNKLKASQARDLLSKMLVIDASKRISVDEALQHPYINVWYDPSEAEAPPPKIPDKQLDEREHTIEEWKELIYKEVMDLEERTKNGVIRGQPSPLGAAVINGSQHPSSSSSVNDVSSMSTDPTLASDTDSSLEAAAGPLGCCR

NEK2 (human) = NEK2 (human) (UniProt P51955)
NEK2 (human), sequence (P51955 whole entry, looked up): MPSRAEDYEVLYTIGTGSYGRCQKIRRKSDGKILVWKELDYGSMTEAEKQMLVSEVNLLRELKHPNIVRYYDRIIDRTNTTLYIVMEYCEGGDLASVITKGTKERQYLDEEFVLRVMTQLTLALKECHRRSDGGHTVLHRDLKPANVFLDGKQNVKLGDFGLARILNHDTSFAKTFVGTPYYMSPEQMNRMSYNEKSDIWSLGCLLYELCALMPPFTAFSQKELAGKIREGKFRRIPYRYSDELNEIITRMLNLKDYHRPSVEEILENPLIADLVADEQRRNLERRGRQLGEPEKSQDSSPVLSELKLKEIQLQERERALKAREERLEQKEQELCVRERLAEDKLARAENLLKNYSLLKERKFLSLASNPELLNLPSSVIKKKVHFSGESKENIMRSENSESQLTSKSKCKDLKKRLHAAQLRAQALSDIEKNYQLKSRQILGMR

MAPK12 (human) = MAPK12 (human) (UniProt P53778)
MKNK1 (human) = MKNK1 (human) (UniProt Q9BUB5)

CHEK2 (human), sequence (O96017 whole entry, looked up): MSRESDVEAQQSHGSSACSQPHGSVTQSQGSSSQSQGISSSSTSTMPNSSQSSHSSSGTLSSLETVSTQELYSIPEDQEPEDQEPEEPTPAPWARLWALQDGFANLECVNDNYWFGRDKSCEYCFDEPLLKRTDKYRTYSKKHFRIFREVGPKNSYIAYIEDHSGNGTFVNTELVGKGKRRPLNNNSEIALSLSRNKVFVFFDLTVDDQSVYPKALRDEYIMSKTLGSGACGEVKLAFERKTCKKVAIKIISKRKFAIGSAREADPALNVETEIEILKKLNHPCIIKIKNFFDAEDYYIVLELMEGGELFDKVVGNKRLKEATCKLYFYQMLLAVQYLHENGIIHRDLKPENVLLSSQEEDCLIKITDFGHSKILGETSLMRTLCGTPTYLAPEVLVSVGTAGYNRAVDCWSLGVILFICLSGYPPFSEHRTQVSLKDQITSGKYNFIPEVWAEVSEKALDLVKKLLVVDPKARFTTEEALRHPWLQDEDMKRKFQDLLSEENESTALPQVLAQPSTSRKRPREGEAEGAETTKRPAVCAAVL
SGK1 (human), O00141 [S422D], sequence (O00141 whole entry S422D, looked up): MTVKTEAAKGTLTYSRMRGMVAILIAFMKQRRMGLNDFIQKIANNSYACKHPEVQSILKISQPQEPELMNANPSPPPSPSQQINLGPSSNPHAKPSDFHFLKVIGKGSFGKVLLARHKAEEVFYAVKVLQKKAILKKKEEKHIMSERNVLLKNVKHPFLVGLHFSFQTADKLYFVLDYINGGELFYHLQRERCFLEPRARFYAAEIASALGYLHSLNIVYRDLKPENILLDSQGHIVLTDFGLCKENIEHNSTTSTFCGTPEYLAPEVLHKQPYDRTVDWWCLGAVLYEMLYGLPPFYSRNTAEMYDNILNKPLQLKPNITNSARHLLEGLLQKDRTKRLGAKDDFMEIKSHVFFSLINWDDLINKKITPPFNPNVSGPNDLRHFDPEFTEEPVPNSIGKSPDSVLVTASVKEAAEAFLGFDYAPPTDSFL

## O=C(Nc1nc2cc(C(F)(F)F)cc(NC3CC3)n2n1)c1cccnc1
PAK4 (human); compound 0.01 µM
  residual activity: 111%
PAK4 (human); compound 0.1 µM
  residual activity: 98%
PAK4 (human); compound 1.0 µM
  residual activity: 102%
CHEK2 (human); compound 0.01 µM
  residual activity: 93%
CHEK2 (human); compound 0.1 µM
  residual activity: 114%
CHEK2 (human); compound 1.0 µM
  residual activity: 89%
PRKACA (human); compound 0.01 µM
  residual activity: 98%
PRKACA (human); compound 0.1 µM
  residual activity: 99%
PRKACA (human); compound 1.0 µM
  residual activity: 88%
RPS6KA1 KD1 KD2 (human); compound 0.01 µM
  residual activity: 99%
RPS6KA1 KD1 KD2 (human); compound 0.1 µM
  residual activity: 102%
RPS6KA1 KD1 KD2 (human); compound 1.0 µM
  residual activity: 65%
CaMK1 (human); compound 0.01 µM
  residual activity: 116%
CaMK1 (human); compound 0.1 µM
  residual activity: 128%
CaMK1 (human); compound 1.0 µM
  residual activity: 109%
[1]; compound 0.01 µM
  residual activity: 103%
[1]; compound 1.0 µM
  residual activity: 100%
MAPK10 (human); compound 0.01 µM
  residual activity: 85%
MAPK10 (human); compound 0.1 µM
  residual activity: 88%
MAPK10 (human); compound 1.0 µM
  residual activity: 79%
DYRK1A (human); compound 0.01 µM
  residual activity: 94%
DYRK1A (human); compound 0.1 µM
  residual activity: 92%
DYRK1A (human); compound 1.0 µM
  residual activity: 81%
[2]; compound 0.01 µM
  residual activity: 97%
[2]; compound 0.1 µM
  residual activity: 95%
[2]; compound 1.0 µM
  residual activity: 104%
MAP2K6 (human); compound 0.01 µM
  residual activity: 100%
MAP2K6 (human); compound 0.1 µM
  residual activity: 110%
MAP2K6 (human); compound 1.0 µM
  residual activity: 85%
EPHB2 (human); compound 0.1 µM
  residual activity: 108%
EPHB2 (human); compound 1.0 µM
  residual activity: 95%
HIPK2 (human); compound 0.01 µM
  residual activity: 100%
HIPK2 (human); compound 0.1 µM
  residual activity: 116%
HIPK2 (human); compound 1.0 µM
  residual activity: 105%
MAPKAPK3 (human); compound 0.01 µM
  residual activity: 97%
MAPKAPK3 (human); compound 0.1 µM
  residual activity: 114%
MAPKAPK3 (human); compound 1.0 µM
  residual activity: 97%
DYRK2 (human); compound 0.01 µM
  residual activity: 104%
DYRK2 (human); compound 0.1 µM
  residual activity: 92%
DYRK2 (human); compound 1.0 µM
  residual activity: 90%
MAPK1 (human); compound 0.01 µM
  residual activity: 92%
MAPK1 (human); compound 0.1 µM
  residual activity: 96%
MAPK1 (human); compound 1.0 µM
  residual activity: 102%
PLK1 (human); compound 0.01 µM
  residual activity: 104%
PLK1 (human); compound 0.1 µM
  residual activity: 128%
PLK1 (human); compound 1.0 µM
  residual activity: 103%
MAP3K11 (human); compound 0.01 µM
  residual activity: 88%
MAP3K11 (human); compound 0.1 µM
  residual activity: 104%
MAP3K11 (human); compound 1.0 µM
  residual activity: 87%
PAK7 (human); compound 0.01 µM
  residual activity: 97%
PAK7 (human); compound 0.1 µM
  residual activity: 114%
PAK7 (human); compound 1.0 µM
  residual activity: 91%
NUAK1 (human); compound 0.01 µM
  residual activity: 100%
NUAK1 (human); compound 0.1 µM
  residual activity: 116%
NUAK1 (human); compound 1.0 µM
  residual activity: 98%
EPHB3 (human); compound 0.01 µM
  residual activity: 99%
EPHB3 (human); compound 0.1 µM
  residual activity: 95%
EPHB3 (human); compound 1.0 µM
  residual activity: 99%
MAPK3 (human); compound 0.01 µM
  residual activity: 120%
MAPK3 (human); compound 0.1 µM
  residual activity: 127%
MAPK3 (human); compound 1.0 µM
  residual activity: 116%
MAPK13 (human); compound 0.01 µM
  residual activity: 102%
MAPK13 (human); compound 0.1 µM
  residual activity: 90%
MAPK13 (human); compound 1.0 µM
  residual activity: 90%
PRKAA1 or PRKAA2 (rat); compound 0.01 µM
  residual activity: 108%
PRKAA1 or PRKAA2 (rat); compound 0.1 µM
  residual activity: 93%
PRKAA1 or PRKAA2 (rat); compound 1.0 µM
  residual activity: 108%
ERBB4 (human); compound 0.01 µM
  residual activity: 106%
ERBB4 (human); compound 0.1 µM
  residual activity: 88%
ERBB4 (human); compound 1.0 µM
  residual activity: 88%
PRKCA (human); compound 0.01 µM
  residual activity: 87%
PRKCA (human); compound 0.1 µM
  residual activity: 89%
PRKCA (human); compound 1.0 µM
  residual activity: 94%
AURKA (human); compound 0.01 µM
  residual activity: 108%
AURKA (human); compound 0.1 µM
  residual activity: 128%
AURKA (human); compound 1.0 µM
  residual activity: 96%
IKBKE (human); compound 0.01 µM
  residual activity: 114%
IKBKE (human); compound 0.1 µM
  residual activity: 106%
IKBKE (human); compound 1.0 µM
  residual activity: 96%
SYK (human); compound 0.01 µM
  residual activity: 107%
SYK (human); compound 0.1 µM
  residual activity: 99%
MST4 (human); compound 0.01 µM
  residual activity: 106%
MST4 (human); compound 0.1 µM
  residual activity: 99%
MST4 (human); compound 1.0 µM
  residual activity: 106%
BRSK2 (human); compound 0.01 µM
  residual activity: 116%
BRSK2 (human); compound 0.1 µM
  residual activity: 116%
BRSK2 (human); compound 1.0 µM
  residual activity: 109%
MAPK8 (human); compound 0.01 µM
  residual activity: 87%
MAPK8 (human); compound 0.1 µM
  residual activity: 93%
MAPK8 (human); compound 1.0 µM
  residual activity: 91%
NEK2 (human); compound 0.01 µM
  residual activity: 97%
NEK2 (human); compound 0.1 µM
  residual activity: 97%
NEK2 (human); compound 1.0 µM
  residual activity: 96%
MAPK12 (human); compound 0.01 µM
  residual activity: 71%
MAPK12 (human); compound 0.1 µM
  residual activity: 102%
MAPK12 (human); compound 1.0 µM
  residual activity: 80%
MKNK1 (human); compound 0.01 µM
  residual activity: 94%
MKNK1 (human); compound 0.1 µM
  residual activity: 99%
MKNK1 (human); compound 1.0 µM
  residual activity: 98%

## CCOC(=O)c1ccc(N2NC(=O)/C(=C/c3ccc([N+](=O)[O-])o3)C2=O)cc1
PAK4 (human); compound 10.0 µM
  residual activity: 55%
CHEK2 (human); compound 10.0 µM
  residual activity: 92%
PRKACA (human); compound 10.0 µM
  residual activity: 95%
RPS6KA1 KD1 KD2 (human); compound 10.0 µM
  residual activity: 92%
CaMK1 (human); compound 10.0 µM
  residual activity: 102%
[1]; compound 10.0 µM
  residual activity: 126%
MAPK10 (human); compound 10.0 µM
  residual activity: 79%
DYRK1A (human); compound 10.0 µM
  residual activity: 70%
[2]; compound 10.0 µM
  residual activity: 79%
MAP2K6 (human); compound 10.0 µM
  residual activity: 87%
EPHB2 (human); compound 10.0 µM
  residual activity: 81%
MAPKAPK3 (human); compound 10.0 µM
  residual activity: 41%
DYRK2 (human); compound 10.0 µM
  residual activity: 54%
MAPK1 (human); compound 10.0 µM
  residual activity: 82%
PLK1 (human); compound 10.0 µM
  residual activity: 92%
MAP3K11 (human); compound 10.0 µM
  residual activity: 100%
PAK7 (human); compound 10.0 µM
  residual activity: 118%
EPHB3 (human); compound 10.0 µM
  residual activity: 100%
MAPK3 (human); compound 10.0 µM
  residual activity: 103%
MAPK13 (human); compound 10.0 µM
  residual activity: 106%
PRKAA1 or PRKAA2 (rat); compound 10.0 µM
  residual activity: 108%
ERBB4 (human); compound 10.0 µM
  residual activity: 91%
PRKCA (human); compound 10.0 µM
  residual activity: 96%
AURKA (human); compound 10.0 µM
  residual activity: 76%
IKBKE (human); compound 10.0 µM
  residual activity: 156%
SYK (human); compound 10.0 µM
  residual activity: 92%
MST4 (human); compound 10.0 µM
  residual activity: 87%
BRSK2 (human); compound 10.0 µM
  residual activity: 42%
MAPK8 (human); compound 10.0 µM
  residual activity: 117%
NEK2 (human); compound 10.0 µM
  residual activity: 125%
MAPK12 (human); compound 10.0 µM
  residual activity: 112%
MKNK1 (human); compound 10.0 µM
  residual activity: 110%
